Laboratory results published in article PMC4215638, “J-147 a Novel Hydrazide Lead Compound to Treat Neurodegeneration: CeeTox™ Safety and Genotoxicity Analysis” (Journal of neurology & neurophysiology, 2013).

Key:
[1] = Microsomal metabolic stability; type: in vitro ADME; conditions: 30 minutes at 37°C, rat microsomes
Procedure: Metabolic stability was conducted using pooled microsomes from non-induced male Sprague-Dawley rats. J-147 was incubated for 30 minutes at 37°C at concentrations of 1 μM. Subsequent HPLC analysis using a Waters Alliance 2795 in combination with a Waters Quattro Premier mass spectrometer measured disappearance of the parent molecule. The compounds were run on a Waters X-BridgeC18 (186003021) 50 × 2.1 mm column with 3.5 micron particle packing at a flow rate of 1 ml/min and with the temperature maintained at 50°C. Solvent A was water with 0.1% formic acid. Solvent B was acetonitrile with 0.07% formic acid. The data for 3 replicates are expressed as percent of parent remaining.

HT22 and primary cell = system: HT22 and primary cell; design: method as in PMID 22194796, PMID 23673233; conditions: HT22 and primary cortical cells, IAA or glutamate toxicity; read-out: EC50 neuroprotection (cell survival); cited from earlier work
MAOB = system: MAOB; design: method as in PMID 23673233; conditions: read-out: EC50 MAOB inhibition; cited from earlier work
dopamine transporter = system: dopamine transporter; design: method as in PMID 23673233; conditions: read-out: EC50 dopamine transporter inhibition; cited from earlier work

In the case of `COc1cccc(/C=N/N(C(=O)C(F)(F)F)c2ccc(C)cc2C)c1` [J-147, (E)-N-(2,4-Dimethylphenyl)-2,2,2-trifluoro-N′-(3-methoxybenzylidene) acetohydrazide], the “Metabolism Ranking” value ([1]; 1 μM) is given as “High (<45=high)”, the remaining at 0.5 h, 1 μM ([1]; male, Sprague-Dawley, pooled microsomes from non-induced rats, percent of parent remaining) is given as 12% and the EC50 (HT22 and primary cell) is given as 60 to 115 nM. For the same molecule, the EC50 (MAOB) was 1880 nM and the EC50 (dopamine transporter) was 650 nM.
